Results reported in US11840686B2, “Modulation of prekallikrein (PKK) expression” (Ionis Pharmaceuticals, Inc., priority 2013, dated 2023).
Strand notation (5' to 3'): a small letter for the sugar, then the base; units joined by * are phosphorothioate-linked, units joined directly phosphodiester-linked; [ ] holds rarer units or linkages, { } end groups; capitals alone tell only the bases. e = 2'-O-(2-methoxyethyl) (MOE); [5mC] = 5-methylcytosine; d = 2'-deoxy (DNA)

Experiments:
human PKK mRNA [1] = experiment: Antisense inhibition of human PKK mRNA in HepaRG cells, 5,000 nM (Example 2); format: cell-based
Method in brief: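 HepaRG cells, 20,000 per well, were electroporated with 5,000 nM MOE gapmer (phosphorothioate, 5-methylcytosine) and incubated about 24 hours. PKK mRNA was quantified by qRT-PCR with primer probe set RTS3454, normalized to RIBOGREEN total RNA, and expressed as percent inhibition versus untreated controls.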

human PKK mRNA [2] = experiment: Dose-dependent antisense inhibition of human PKK in HepaRG cells, 0.19-5.00 uM (Example 5); format: cell-based; details: for percent inhibition of PKK mRNA, 0.19 μM: 0.19 μM antisense oligonucleotide; for percent inhibition of PKK mRNA, 0.56 μM: 0.56 μM antisense oligonucleotide; for percent inhibition of PKK mRNA, 1.67 μM: 1.67 μM antisense oligonucleotide; for percent inhibition of PKK mRNA, 5.00 μM: 5.00 μM antisense oligonucleotide
Method in brief: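 HepaRG cells (20,000/well) were electroporated with antisense oligonucleotide at 0.19, 0.56, 1.67 and 5.00 μM and treated for about 16 hours. PKK mRNA was quantified by qRT-PCR with primer probe set RTS3454, normalised to RIBOGREEN total RNA, and IC50 was derived per oligonucleotide.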

[3] = HepaRG cells, electroporation, approximately 16 hours, Table 40
[4] = 4 point dose response, HepaRG cells, Table 40
[5] = HepaRG cells, electroporation, approximately 16 hours, Table 39
[6] = 4 point dose response, HepaRG cells, Table 39
[7] = Table 8, HepaRG cells, electroporation with 5,000 nM antisense oligonucleotide, approx. 24 hours, PKK mRNA by RT-PCR (RTS3454), relative to untreated control cells
[8] = Table 34, HepaRG, electroporation, ~16 h
[9] = HepaRG cells, electroporation with 5,000 nM antisense oligonucleotide, approximately 24 hours, PKK mRNA by RT-PCR (RTS3454), relative to untreated control cells, Table 6 experiment
[10] = HepaRG cells, electroporation, approximately 16 hours, Table 35
[11] = 4 point dose response, HepaRG cells, Table 35

547520 (antisense eT*e[5mC]*eA*eG*e[5mC]*d[5mC]*dA*dG*dA*d[5mC]*dA*dT*dT*dG*dT*e[5mC]*e[5mC]*eT*e[5mC]*eA) [compound 547520]
% inhibition (human PKK mRNA [1]; HepaRG cells, electroporation, 5,000 nM antisense oligonucleotide, approx. 24 hours, primer probe set RTS3454, relative to untreated control cells, Table 11): 76% | percent inhibition of PKK at 0.19 μM (human PKK mRNA [2]; [3]): 0% | percent inhibition of PKK at 0.56 μM (human PKK mRNA [2]; [3]): 25% | percent inhibition of PKK at 1.67 μM (human PKK mRNA [2]; [3]): 66% | percent inhibition of PKK at 5.00 μM (human PKK mRNA [2]; [3]): 64% | IC50 (human PKK mRNA [2]; [4]): 1100 nM

546853 (eA*e[5mC]*eA*eG*eT*dA*dT*d[5mC]*dA*d[5mC]*dT*dG*dT*d[5mC]*d[5mC]*eT*eA*eT*eA*eT; antisense) [compound 546853]
% inhibition (human PKK mRNA [1]; human PKK mRNA in HepaRG cells, 5-10-5 gapmers, Table 14): 86% | percent inhibition of PKK at 0.19 μM (human PKK mRNA [2]; [5]): 47% | percent inhibition of PKK at 0.56 μM (human PKK mRNA [2]; [5]): 64% | percent inhibition of PKK at 1.67 μM (human PKK mRNA [2]; [5]): 84% | IC50 (human PKK mRNA [2]; [6]): 200 nM | percent inhibition of PKK mRNA, 0.19 μM (human PKK mRNA [2]; HepaRG cells): 4% | percent inhibition of PKK mRNA, 0.56 μM (human PKK mRNA [2]; HepaRG cells): 49% | percent inhibition of PKK mRNA, 1.67 μM (human PKK mRNA [2]; HepaRG cells): 74% | percent inhibition of PKK mRNA, 5.00 μM (human PKK mRNA [2]; HepaRG cells): 92% | IC50 (human PKK mRNA [2]; HepaRG cells, 0.19-5.00 μM): 800 nM

547413 (eG*eT*eG*eA*eA*dA*dA*dA*d[5mC]*dT*dG*dA*d[5mC]*dA*dG*e[5mC]*eG*eA*eA*eT; antisense) [compound 547413]
% inhibition (human PKK mRNA [1]; [7]): 94% | percent inhibition of PKK at 0.19 μM (human PKK mRNA [2]; [8]): 0% | percent inhibition of PKK at 0.56 μM (human PKK mRNA [2]; [8]): 0% | percent inhibition of PKK at 1.67 μM (human PKK mRNA [2]; [8]): 41% | percent inhibition of PKK at 5.00 μM (human PKK mRNA [2]; [8]): 83% | IC50 (human PKK mRNA [2]; Table 34, PKK mRNA, HepaRG, electroporation, ~16 h): 2200 nM

546208 (antisense e[5mC]*eG*eT*eT*eA*d[5mC]*dT*d[5mC]*dA*dG*d[5mC]*dA*d[5mC]*d[5mC]*dT*eT*eT*eA*eT*eA) [compound 546208]
% inhibition (human PKK mRNA [1]; [9]): 92% | percent inhibition of PKK at 0.19 μM (human PKK mRNA [2]; [10]): 16% | percent inhibition of PKK at 0.56 μM (human PKK mRNA [2]; [10]): 45% | percent inhibition of PKK at 1.67 μM (human PKK mRNA [2]; [10]): 79% | percent inhibition of PKK at 5.00 μM (human PKK mRNA [2]; [10]): 91% | IC50 (human PKK mRNA [2]; [11]): 700 nM | percent inhibition of PKK mRNA, 0.19 μM (human PKK mRNA [2]; HepaRG cells): 5% | percent inhibition of PKK mRNA, 0.56 μM (human PKK mRNA [2]; HepaRG cells): 33% | percent inhibition of PKK mRNA, 1.67 μM (human PKK mRNA [2]; HepaRG cells): 70% | percent inhibition of PKK mRNA, 5.00 μM (human PKK mRNA [2]; HepaRG cells): 97% | IC50 (human PKK mRNA [2]; HepaRG cells, 0.19-5.00 μM): 900 nM

547340 (antisense e[5mC]*eT*e[5mC]*e[5mC]*eT*d[5mC]*dT*d[5mC]*dA*dT*dA*dT*d[5mC]*dA*dA*e[5mC]*eT*e[5mC]*e[5mC]*eT) [compound 547340]
% inhibition (human PKK mRNA [1]; [9]): 93% | percent inhibition of PKK at 0.19 μM (human PKK mRNA [2]; [10]): 46% | percent inhibition of PKK at 0.56 μM (human PKK mRNA [2]; [10]): 79% | percent inhibition of PKK at 1.67 μM (human PKK mRNA [2]; [10]): 88% | percent inhibition of PKK at 0.19 0μM (human PKK mRNA [2]; 0.19 0μM, HepaRG cells, electroporation, approximately 16 hours, Table 41): 34% | percent inhibition of PKK at 0.56 0μM (human PKK mRNA [2]; 0.56 0μM, HepaRG cells, electroporation, approximately 16 hours, Table 41): 84% | percent inhibition of PKK at 1.67 1μM (human PKK mRNA [2]; 1.67 1μM, HepaRG cells, electroporation, approximately 16 hours, Table 41): 96% | IC50 (human PKK mRNA [2]; [11]): 200 nM | IC50 (human PKK mRNA [2]; 4 point dose response, HepaRG cells, Table 41): 300 nM

546301 (antisense eT*eT*eG*eT*eA*dA*dT*dG*dT*d[5mC]*dT*dG*dA*d[5mC]*dA*eG*eA*eT*eT*eT) [compound 546301]
% inhibition (human PKK mRNA [1]; [7]): 93% | percent inhibition of PKK at 0.19 μM (human PKK mRNA [2]; [10]): 25% | percent inhibition of PKK at 0.56 μM (human PKK mRNA [2]; [10]): 50% | percent inhibition of PKK at 1.67 μM (human PKK mRNA [2]; [10]): 53% | percent inhibition of PKK at 5.00 μM (human PKK mRNA [2]; [10]): 87% | IC50 (human PKK mRNA [2]; [11]): 800 nM

547453 (antisense eT*e[5mC]*eA*eT*eG*dA*dT*dT*d[5mC]*d[5mC]*d[5mC]*dT*dT*d[5mC]*dT*eG*eA*eG*eA*e[5mC]) [compound 547453]
% inhibition (human PKK mRNA [1]; Table 9 experiment, HepaRG cells, 20,000 cells per well, electroporation with 5,000 nM antisense oligonucleotide, approx. 24 hours, PKK mRNA by RT-PCR (RTS3454), relative to untreated control cells): 81% | % inhibition (human PKK mRNA [1]; Table 10 experiment, HepaRG cells, 20,000 cells per well, electroporation with 5,000 nM antisense oligonucleotide, approx. 24 hours, PKK mRNA by RT-PCR (RTS3454), relative to untreated control cells): 81% | percent inhibition of PKK at 0.19 μM (human PKK mRNA [2]; [5]): 25% | percent inhibition of PKK at 0.56 μM (human PKK mRNA [2]; [5]): 40% | percent inhibition of PKK at 1.67 μM (human PKK mRNA [2]; [5]): 54% | percent inhibition of PKK at 5.00 μM (human PKK mRNA [2]; [5]): 92% | IC50 (human PKK mRNA [2]; [6]): 800 nM

546896 (eG*eT*eA*eT*e[5mC]*dA*d[5mC]*dT*dG*dT*d[5mC]*d[5mC]*dT*dA*dT*eG*eT*e[5mC]*eA*e[5mC]; antisense) [compound 546896]
% inhibition (human PKK mRNA [1]; human PKK mRNA, HepaRG cells, 5-10-5 motif oligonucleotides targeting SEQ ID NO: 1 and 10): 75% | percent inhibition of PKK at 0.19 μM (human PKK mRNA [2]; [3]): 0% | percent inhibition of PKK at 0.56 μM (human PKK mRNA [2]; [3]): 45% | percent inhibition of PKK at 1.67 μM (human PKK mRNA [2]; [3]): 82% | percent inhibition of PKK at 5.00 μM (human PKK mRNA [2]; [3]): 97% | IC50 (human PKK mRNA [2]; [4]): 800 nM | percent inhibition of PKK mRNA, 0.19 μM (human PKK mRNA [2]; HepaRG cells): 35% | percent inhibition of PKK mRNA, 0.56 μM (human PKK mRNA [2]; HepaRG cells): 60% | percent inhibition of PKK mRNA, 1.67 μM (human PKK mRNA [2]; HepaRG cells): 83% | IC50 (human PKK mRNA [2]; HepaRG cells, 0.19-5.00 μM): 400 nM
